In this test the target is arrestin2. As to the kind of experiment: Cou-facilitated FRET assay for dissociation constant determination. It counts as binding, bovine. The settings on record: for Kd: 1 μM arrestin2 L293Cou with 1 μM Fab30, rising phosphopeptide concentrations, 25 °C, excitation 280 nm, ratio F450/F330; for reduction of affinity for arrestin2 compared with V2Rpp-FP: from FRET Kd values. Here is the method:
Steady state fluorescence was measured by a Varioskan flash (Thermo Scientific) instrument at 25 °C. […] Fluorescence intensity analysis of normalized ratio F450/F330 was calculated from relative fluorescence intensity at 450 and 330 nm. The dissociation constant was determined by fitting to the nonlinear regression equation y = Bmax [X] / (Kd + [X]) + NS[X] + Background as ours previously reported. […]
different phospho-peptide binding. a). Schematic flowchart of FRET assay for dissociation constant determination of arrestin-phospho-peptide interaction.
The synthetic fluorescent amino acid L-(7-hydroxycoumarin-4-yl) ethylglycine (Cou) was genetically incorporated into arrestin2 and served as a fluorescent acceptor for the emission light at 330 nm, and tryptophan served as the donor, which was excited at 280 nm. Cou produced its characteristic emission light at 450 nm. b). Analysis of the titration experiments monitored by FRET assay. The dissociation constant was determined by fitting to the nonlinear regression equation y = Bmax[X]/(Kd + [X]) + NS[X]+Background as previously described4. […]

By Kd is commonly meant the equilibrium constant for the complex coming apart. Regarding `CC(C)C[C@H](NC(=O)[C@H](COP(=O)(O)O)NC(=O)[C@@H]1CCCN1C(=O)[C@@H]1CCCN1C(=O)[C@@H](NC(=O)[C@H](CCCNC(=N)N)NC(=O)CNC(=O)[C@H](CCCNC(=N)N)NC(=O)[C@H](C)N)[C@@H](C)O)C(=O)NCC(=O)N1CCC[C@H]1C(=O)N[C@@H](CCC(N)=O)C(=O)N[C@@H](CC(=O)O)C(=O)N[C@@H](CCC(=O)O)C(=O)N[C@@H](COP(=O)(O)O)C(=O)N[C@@H](CS)C(=O)N[C@H](C(=O)N[C@H](C(=O)N[C@@H](C)C(=O)N[C@@H](COP(=O)(O)O)C(=O)N[C@@H](COP(=O)(O)O)C(=O)N[C@@H](COP(=O)(O)O)C(=O)N[C@@H](CC(C)C)C(=O)N[C@@H](C)C(=O)N[C@@H](CCCCN)C(=O)N[C@@H](CC(=O)O)C(=O)N[C@H](C(=O)N[C@@H](CO)C(=O)N[C@@H](CO)C(=O)O)[C@@H](C)O)[C@@H](C)OP(=O)(O)O)[C@@H](C)OP(=O)(O)O` [V2Rpp-1], the dissociation constant (Kd) came to 3.3 ± 0.6 µM and the “reduction of affinity for arrestin2 compared with V2Rpp-FP” value (“reduction of affinity for arrestin2” below) was “approximately 3 fold”.

Consider `CC(C)C[C@H](NC(=O)[C@H](COP(=O)(O)O)NC(=O)[C@@H]1CCCN1C(=O)[C@@H]1CCCN1C(=O)[C@@H](NC(=O)[C@H](CCCNC(=N)N)NC(=O)CNC(=O)[C@H](CCCNC(=N)N)NC(=O)[C@H](C)N)[C@@H](C)OP(=O)(O)O)C(=O)NCC(=O)N1CCC[C@H]1C(=O)N[C@@H](CCC(N)=O)C(=O)N[C@@H](CC(=O)O)C(=O)N[C@@H](CCC(=O)O)C(=O)N[C@@H](CO)C(=O)N[C@@H](CS)C(=O)N[C@H](C(=O)N[C@H](C(=O)N[C@@H](C)C(=O)N[C@@H](COP(=O)(O)O)C(=O)N[C@@H](COP(=O)(O)O)C(=O)N[C@@H](COP(=O)(O)O)C(=O)N[C@@H](CC(C)C)C(=O)N[C@@H](C)C(=O)N[C@@H](CCCCN)C(=O)N[C@@H](CC(=O)O)C(=O)N[C@H](C(=O)N[C@@H](CO)C(=O)N[C@@H](CO)C(=O)O)[C@@H](C)O)[C@@H](C)OP(=O)(O)O)[C@@H](C)OP(=O)(O)O` [V2Rpp-3], for which the dissociation constant Kd is 3 ± 0.4 µM and the “reduction of affinity for arrestin2” value is reported as “approximately 3 fold”.

Consider `CC(C)C[C@H](NC(=O)[C@H](COP(=O)(O)O)NC(=O)[C@@H]1CCCN1C(=O)[C@@H]1CCCN1C(=O)[C@@H](NC(=O)[C@H](CCCNC(=N)N)NC(=O)CNC(=O)[C@H](CCCNC(=N)N)NC(=O)[C@H](C)N)[C@@H](C)OP(=O)(O)O)C(=O)NCC(=O)N1CCC[C@H]1C(=O)N[C@@H](CCC(N)=O)C(=O)N[C@@H](CC(=O)O)C(=O)N[C@@H](CCC(=O)O)C(=O)N[C@@H](COP(=O)(O)O)C(=O)N[C@@H](CS)C(=O)N[C@H](C(=O)N[C@H](C(=O)N[C@@H](C)C(=O)N[C@@H](COP(=O)(O)O)C(=O)N[C@@H](COP(=O)(O)O)C(=O)N[C@@H](COP(=O)(O)O)C(=O)N[C@@H](CC(C)C)C(=O)N[C@@H](C)C(=O)N[C@@H](CCCCN)C(=O)N[C@@H](CC(=O)O)C(=O)N[C@H](C(=O)N[C@@H](CO)C(=O)N[C@@H](CO)C(=O)O)[C@@H](C)O)[C@@H](C)O)[C@@H](C)OP(=O)(O)O` [V2Rpp-4], for which the Kd stood at 5.1 ± 0.7 µM and the “reduction of affinity for arrestin2” value was approximately 5 fold.

(Values after paper PMC8062632, “Structural studies of phosphorylation-dependent interactions between the V2R receptor and arrestin-2” (Nature Communications, 2021).)
